The assay relates to Pressor reaction (norepinephirine). Briefly: Pressor reaction inhibiting effect of prazosin hydrochloride-containing preparation (Test Example 2). Format: in vivo, male SD rats. Particulars: oral, 20 mg/kg once daily, 3 days; 24 h after last dose; norepinephirine 3 μg/kg i.v.; control 48.6 ± 1.2; * significant difference from control (risk factor 5%).

Where a name gives a salt, the structure may show the parent alone.

Description: (B) A suspension of prazosin hydrochloride in 1% gum arabic suspension was orally administered.
The dosage for both treatment groups was 20 mg/kg once daily and the treatment was carried out for 3 consecutive days. Twenty-four hours after the last dosing, 3 μg/kg of norepinephirine was intravenously administered under pentobarbital sodium anesthesia (dosage 40 mg/kg; intraperitoneal) and the resulting pressor reaction was compared with that in the untreated control group.

The molecule `COc1cc2nc(N3CCN(C(=O)c4ccco4)CC3)nc(N)c2cc1OC` [prazosin hydrochloride] returned a Pressor reaction of 34.9 ± 2.2 mmHg.

The record behind these values is patent publication US4952560A, “Ointment base” (Takeda Chemical Industries, Ltd., priority 1984, dated 1990).
